Laboratory results published in patent US11884711B2, “Fusion proteins of GDF15 and use thereof” (BEIJING QL BIOPHARMACEUTICAL CO., LTD., priority 2020, dated 2024).

Tested on: C57BL/6 mice
Test: In vivo food intake and body weight in C57BL/6 mice
Conditions: 30 nmol/kg subcutaneously every day for 10 days
Method: 10 week old male C57BL/6 mice were injected everyday subcutaneously with 30 nmol/kg of the fusion proteins for 10 days (n=5/group), semaglutide was studied in parallel as a control. Body weight (BW) was measured daily for each individual animal and food intake was measured daily for each entire treatment group. Day 1 and Day 10 are the first day and the last day of treatment. % BW loss=100*(BW on Day n−BW on Day 1)/(BW on Day 1). Cumulative food intake on Day n represents sum of food intake from Day 1 to Day n. Data are indicated as mean values and standard error (SEM) or pooled values. Body weight reduction on Day 11 is calculated by −1*(% BW loss of treatment group-% BW loss of vehicle group); Cumulative food intake reduction on Day 11 is calculated by −100*(cumulative food intake of treatment group−cumulative food intake of vehicle group)/cumulative food intake of vehicle group.

For semaglutide [reference compound], the “Body weight reduction at 30 nmol/kg (% reduction compared to vehicle) (Day 11)” value was 7.27% and the “Cumulative food intake reduction at 30 nmol/kg (% reduction compared to vehicle) (Day 11)” value was 11.8%.
